Measurements taken from ChEMBL document CHEMBL1212758 (Antimicrob Agents Chemother, 2010).

system: Macacine alphaherpesvirus 1; experiment: Ratio of acyclovir EC50 to compound EC50 for Macacine herpesvirus 1 isolate E2490 infected in african green monkey Vero cells; format: functional

Row | SMILES | Ratio EC50
1 | Cc1cn([C@H]2O[C@@H](CO)[C@H](O)[C@H]2F)c(=O)[nH]c1=O [CLEVUDINE] | 100
2 | Cc1cn([C@@H]2O[C@H](CO)[C@@H](O)[C@@H]2F)c(=O)nc1N | 10

system: Macacine alphaherpesvirus 1; experiment: Ratio of acyclovir EC50 to compound EC50 for Macacine herpesvirus 1 isolate MR11 infected in african green monkey Vero cells; format: functional

Row | SMILES | Ratio EC50
3 | Cc1cn([C@H]2O[C@@H](CO)[C@H](O)[C@H]2F)c(=O)[nH]c1=O [CLEVUDINE] | 100
4 | Cc1cn([C@@H]2O[C@H](CO)[C@@H](O)[C@@H]2F)c(=O)nc1N | 10

system: Macacine alphaherpesvirus 1; experiment: Ratio of acyclovir EC50 to compound EC50 for Macacine herpesvirus 1 isolate A5 infected in african green monkey Vero cells; format: functional

Row | SMILES | Ratio EC50
5 | Cc1cn([C@H]2O[C@@H](CO)[C@H](O)[C@H]2F)c(=O)[nH]c1=O [CLEVUDINE] | 100
6 | Cc1cn([C@@H]2O[C@H](CO)[C@@H](O)[C@@H]2F)c(=O)nc1N | 10

system: Macacine alphaherpesvirus 1; experiment: Ratio of acyclovir EC50 to compound EC50 for Macacine herpesvirus 1 isolate MR2 infected in african green monkey Vero cells; format: functional

Row | SMILES | Ratio EC50
7 | Cc1cn([C@H]2O[C@@H](CO)[C@H](O)[C@H]2F)c(=O)[nH]c1=O [CLEVUDINE] | 100
8 | Cc1cn([C@@H]2O[C@H](CO)[C@@H](O)[C@@H]2F)c(=O)nc1N | 10

system: Human alphaherpesvirus 1; experiment: Ratio of acyclovir EC50 to compound EC50 for HSV1 infected in african green monkey Vero cells; format: functional

Row | SMILES | Ratio EC50
9 | Cc1cn([C@H]2O[C@@H](CO)[C@H](O)[C@H]2F)c(=O)[nH]c1=O [CLEVUDINE] | 100
10 | Cc1cn([C@@H]2O[C@H](CO)[C@@H](O)[C@@H]2F)c(=O)nc1N | 10

system: Macacine alphaherpesvirus 1; experiment: Ratio of acyclovir EC50 to compound EC50 for Macacine herpesvirus 1 isolate MJ2 infected in african green monkey Vero cells; format: functional

Row | SMILES | Ratio EC50
11 | Cc1cn([C@H]2O[C@@H](CO)[C@H](O)[C@H]2F)c(=O)[nH]c1=O [CLEVUDINE] | 100
12 | Cc1cn([C@@H]2O[C@H](CO)[C@@H](O)[C@@H]2F)c(=O)nc1N | 10

system: Macacine alphaherpesvirus 1; experiment: Ratio of acyclovir EC50 to compound EC50 for Macacine herpesvirus 1 isolate MR10 infected in african green monkey Vero cells; format: functional

Row | SMILES | Ratio EC50
13 | Cc1cn([C@H]2O[C@@H](CO)[C@H](O)[C@H]2F)c(=O)[nH]c1=O [CLEVUDINE] | 100
14 | Cc1cn([C@@H]2O[C@H](CO)[C@@H](O)[C@@H]2F)c(=O)nc1N | 10

system: Macacine alphaherpesvirus 1; experiment: Ratio of acyclovir EC50 to compound EC50 for Macacine herpesvirus 1 isolate MC1 infected in african green monkey Vero cells; format: functional

Row | SMILES | Ratio EC50
15 | Cc1cn([C@H]2O[C@@H](CO)[C@H](O)[C@H]2F)c(=O)[nH]c1=O [CLEVUDINE] | 100
16 | Cc1cn([C@@H]2O[C@H](CO)[C@@H](O)[C@@H]2F)c(=O)nc1N | 10

system: Macacine alphaherpesvirus 1; experiment: Ratio of acyclovir EC50 to compound EC50 for Macacine herpesvirus 1 isolate MR7 infected in african green monkey Vero cells; format: functional

Row | SMILES | Ratio EC50
17 | Cc1cn([C@H]2O[C@@H](CO)[C@H](O)[C@H]2F)c(=O)[nH]c1=O [CLEVUDINE] | 100
18 | Cc1cn([C@@H]2O[C@H](CO)[C@@H](O)[C@@H]2F)c(=O)nc1N | 10

system: Macacine alphaherpesvirus 1; experiment: Ratio of acyclovir EC50 to compound EC50 for Macacine herpesvirus 1 isolate MR8 infected in african green monkey Vero cells; format: functional

Row | SMILES | Ratio EC50
19 | Cc1cn([C@H]2O[C@@H](CO)[C@H](O)[C@H]2F)c(=O)[nH]c1=O [CLEVUDINE] | 100
20 | Cc1cn([C@@H]2O[C@H](CO)[C@@H](O)[C@@H]2F)c(=O)nc1N | 10

system: Human alphaherpesvirus 2; experiment: Ratio of acyclovir EC50 to compound EC50 for HSV 2 infected in african green monkey Vero cells; format: functional

Row | SMILES | Ratio EC50
21 | Cc1cn([C@H]2O[C@@H](CO)[C@H](O)[C@H]2F)c(=O)[nH]c1=O [CLEVUDINE] | 100
22 | Cc1cn([C@@H]2O[C@H](CO)[C@@H](O)[C@@H]2F)c(=O)nc1N | 10

system: Macacine alphaherpesvirus 1; experiment: Ratio of acyclovir EC50 to compound EC50 for Macacine herpesvirus 1 isolate MP1 infected in african green monkey Vero cells; format: functional

Row | SMILES | Ratio EC50
23 | Cc1cn([C@H]2O[C@@H](CO)[C@H](O)[C@H]2F)c(=O)[nH]c1=O [CLEVUDINE] | 100
24 | Cc1cn([C@@H]2O[C@H](CO)[C@@H](O)[C@@H]2F)c(=O)nc1N | 10

system: Macacine alphaherpesvirus 1; experiment: Ratio of acyclovir EC50 to compound EC50 for Macacine herpesvirus 1 isolate A1 infected in african green monkey Vero cells; format: functional

Row | SMILES | Ratio EC50
25 | Cc1cn([C@H]2O[C@@H](CO)[C@H](O)[C@H]2F)c(=O)[nH]c1=O [CLEVUDINE] | 100
26 | Cc1cn([C@@H]2O[C@H](CO)[C@@H](O)[C@@H]2F)c(=O)nc1N | 10

system: Macacine alphaherpesvirus 1; experiment: Ratio of acyclovir EC50 to compound EC50 for Macacine herpesvirus 1 isolate A6 infected in african green monkey Vero cells; format: functional

Row | SMILES | Ratio EC50
27 | Cc1cn([C@H]2O[C@@H](CO)[C@H](O)[C@H]2F)c(=O)[nH]c1=O [CLEVUDINE] | 100
28 | Cc1cn([C@@H]2O[C@H](CO)[C@@H](O)[C@@H]2F)c(=O)nc1N | 10

system: Macacine alphaherpesvirus 1; experiment: Ratio of acyclovir EC50 to compound EC50 for Macacine herpesvirus 1 isolate MR9 infected in african green monkey Vero cells; format: functional

Row | SMILES | Ratio EC50
29 | Cc1cn([C@H]2O[C@@H](CO)[C@H](O)[C@H]2F)c(=O)[nH]c1=O [CLEVUDINE] | 100
30 | Cc1cn([C@@H]2O[C@H](CO)[C@@H](O)[C@@H]2F)c(=O)nc1N | 10

system: Macacine alphaherpesvirus 1; experiment: Ratio of acyclovir EC50 to compound EC50 for Macacine herpesvirus 1 isolate MR3 infected in african green monkey Vero cells; format: functional

Row | SMILES | Ratio EC50
31 | Cc1cn([C@H]2O[C@@H](CO)[C@H](O)[C@H]2F)c(=O)[nH]c1=O [CLEVUDINE] | 100
32 | Cc1cn([C@@H]2O[C@H](CO)[C@@H](O)[C@@H]2F)c(=O)nc1N | 10

system: Macacine alphaherpesvirus 1; experiment: Ratio of acyclovir EC50 to compound EC50 for Macacine herpesvirus 1 isolate MC2 infected in african green monkey Vero cells; format: functional

Row | SMILES | Ratio EC50
33 | Cc1cn([C@H]2O[C@@H](CO)[C@H](O)[C@H]2F)c(=O)[nH]c1=O [CLEVUDINE] | 100
34 | Cc1cn([C@@H]2O[C@H](CO)[C@@H](O)[C@@H]2F)c(=O)nc1N | 10

system: Macacine alphaherpesvirus 1; experiment: Ratio of acyclovir EC50 to compound EC50 for Macacine herpesvirus 1 isolate A4 infected in african green monkey Vero cells; format: functional

Row | SMILES | Ratio EC50
35 | Cc1cn([C@H]2O[C@@H](CO)[C@H](O)[C@H]2F)c(=O)[nH]c1=O [CLEVUDINE] | 100
36 | Cc1cn([C@@H]2O[C@H](CO)[C@@H](O)[C@@H]2F)c(=O)nc1N | 10

system: Macacine alphaherpesvirus 1; experiment: Ratio of acyclovir EC50 to compound EC50 for Macacine herpesvirus 1 isolate MJ1 infected in african green monkey Vero cells; format: functional

Row | SMILES | Ratio EC50
37 | Cc1cn([C@H]2O[C@@H](CO)[C@H](O)[C@H]2F)c(=O)[nH]c1=O [CLEVUDINE] | 100
38 | Cc1cn([C@@H]2O[C@H](CO)[C@@H](O)[C@@H]2F)c(=O)nc1N | 10

system: Macacine alphaherpesvirus 1; experiment: Ratio of acyclovir EC50 to compound EC50 for Macacine herpesvirus 1 isolate MR1 infected in african green monkey Vero cells; format: functional

Row | SMILES | Ratio EC50
39 | Cc1cn([C@H]2O[C@@H](CO)[C@H](O)[C@H]2F)c(=O)[nH]c1=O [CLEVUDINE] | 100
40 | Cc1cn([C@@H]2O[C@H](CO)[C@@H](O)[C@@H]2F)c(=O)nc1N | 10

system: Macacine alphaherpesvirus 1; experiment: Ratio of acyclovir EC50 to compound EC50 for Macacine herpesvirus 1 isolate A2 infected in african green monkey Vero cells; format: functional

Row | SMILES | Ratio EC50
41 | Cc1cn([C@H]2O[C@@H](CO)[C@H](O)[C@H]2F)c(=O)[nH]c1=O [CLEVUDINE] | 100
42 | Cc1cn([C@@H]2O[C@H](CO)[C@@H](O)[C@@H]2F)c(=O)nc1N | 10

system: Macacine alphaherpesvirus 1; experiment: Ratio of acyclovir EC50 to compound EC50 for Macacine herpesvirus 1 isolate MJ3 infected in african green monkey Vero cells; format: functional

Row | SMILES | Ratio EC50
43 | Cc1cn([C@H]2O[C@@H](CO)[C@H](O)[C@H]2F)c(=O)[nH]c1=O [CLEVUDINE] | 100
44 | Cc1cn([C@@H]2O[C@H](CO)[C@@H](O)[C@@H]2F)c(=O)nc1N | 10

system: Macacine alphaherpesvirus 1; experiment: Ratio of acyclovir EC50 to compound EC50 for Macacine herpesvirus 1 isolate MR4 infected in african green monkey Vero cells; format: functional

Row | SMILES | Ratio EC50
45 | Cc1cn([C@H]2O[C@@H](CO)[C@H](O)[C@H]2F)c(=O)[nH]c1=O [CLEVUDINE] | 100
46 | Cc1cn([C@@H]2O[C@H](CO)[C@@H](O)[C@@H]2F)c(=O)nc1N | 10

system: Macacine alphaherpesvirus 1; experiment: Ratio of acyclovir EC50 to compound EC50 for Macacine herpesvirus 1 isolate MR5 infected in african green monkey Vero cells; format: functional

Row | SMILES | Ratio EC50
47 | Cc1cn([C@H]2O[C@@H](CO)[C@H](O)[C@H]2F)c(=O)[nH]c1=O [CLEVUDINE] | 100
48 | Cc1cn([C@@H]2O[C@H](CO)[C@@H](O)[C@@H]2F)c(=O)nc1N | 10

system: Macacine alphaherpesvirus 1; experiment: Ratio of acyclovir EC50 to compound EC50 for Macacine herpesvirus 1 isolate A3 infected in african green monkey Vero cells; format: functional

Row | SMILES | Ratio EC50
49 | Cc1cn([C@H]2O[C@@H](CO)[C@H](O)[C@H]2F)c(=O)[nH]c1=O [CLEVUDINE] | 100
50 | Cc1cn([C@@H]2O[C@H](CO)[C@@H](O)[C@@H]2F)c(=O)nc1N | 10

system: Macacine alphaherpesvirus 1; experiment: Ratio of acyclovir EC50 to compound EC50 for Macacine herpesvirus 1 isolate MR6 infected in african green monkey Vero cells; format: functional

Row | SMILES | Ratio EC50
51 | Cc1cn([C@H]2O[C@@H](CO)[C@H](O)[C@H]2F)c(=O)[nH]c1=O [CLEVUDINE] | 100
52 | Cc1cn([C@@H]2O[C@H](CO)[C@@H](O)[C@@H]2F)c(=O)nc1N | 10
